Test results reported in patent US11191811B2, “Osteocalcin as a treatment for frailty associated with aging” (THE TRUSTEES OF COLUMBIA UNIVERSITY IN THE CITY OF NEW YORK, priority 2014, dated 2021).
Entries after “also recorded” stand apart in the source; their conditions may differ.

Tests used:
Type in all cases: in vivo, mouse
Osteocalcin−/− mice = assay: Behavioral tests of Osteocalcin−/− mice with ICV infusion (DLT, EPMT, OFT, FST, TST); details: for anxiety / depression: ICV infusion 10 ng/hour, week-long, Osteocalcin−/− mice
Procedure: FIG. 12. Administration of osteocalcin alleviates anxiety and depression. (A-E) Behavioral analyses of adult Osteocalcin^−/− mice receiving recombinant uncarboxylated osteocalcin through intracerebro-ventricular (ICV) infusions. (A) Light and Dark test, (B) Elevated plus maze test, (C) Open field test, (D) Forced swim test, and (E) Tail suspension test performed in a cohort of WT (n=7) and Osteocalcin^−/− infused with vehicle or recombinant uncarboxylated osteocalcin (10 ng/hour). In each set of three bars, the rightmost bar represents the results following administration of osteocalcin.
For osteocalcin delivery to pregnant mice, IP injections (240 ng/day) were performed as soon as a plug was present daily until delivery (E0.5-E18.5). For osteocalcin or leptin infusion in adult Osteocalcin^−/− or ob/ob mice, pumps (Alzet micro-osmotic pump, Model 1002) delivering osteocalcin (300 ng/hr), leptin (50 ng/hr), or vehicle were surgically installed subcutaneously in the backs of 3-month old mice. For the postnatal rescue of cognitive functions in Osteocalcin^−/− mice, osteocalcin (10 ng/hour) or vehicle were delivered intrasubventricularly (icv) as previously described (Ducy et al., 2000, Cell 100:197-207). Leptin and osteocalcin content in sera and tissues were determined by ELISA.
Tail suspension testing was performed as previously described (Mayorga et al., 2001, J. Pharmacology Exper. Therapeutics 298:1101-1107; Steru et al., 1985, Psychopharmacology 85:367-370). Mice were transported a short distance from the holding facility to the testing room and left there undisturbed for at least 1 hour. Mice were individually suspended by the tail (distance from floor was 35 cm) using adhesive tape (distance from tip of tail was 2 cm). […] The parameter recorded was the number of seconds spent immobile. Mice were scored by a highly trained observer, over a 5 min period, blind to the genotype of the mice.
Anxiety and locomotor activity of mice were measured using the open field test (David et al., 2009, Neuron 62:479-493). Each animal was placed in a 43×43 cm open field chamber, and tested for 30 min. Mice were monitored throughout each test session by video tracking and analyzed using Matlab software. Mice were placed individually into the center of the open-field arena and allowed to explore freely. The overall motor activity was quantified as the total distance travelled. The anxiety was quantified measuring the number of rearings and the time and distance spent in the center versus periphery of the open field chamber (in %).
Each mouse was allowed to explore the apparatus for 5 min. Global activity was assessed by measuring the number of entries […] (David et al, 2009, Neuron 62:479-493). Anxiety was assessed by comparing the time spent in the open arms.
The forced swimming test was carried out according to the method described by David et al., 2009, Neuron 62:479-493. Briefly, mice were dropped individually into glass cylinders (height: 25 cm, diameter: 10 cm) containing 10 cm water height., maintained at 23-25° C. Animals were tested for a total of 6 min. The total duration of immobility time was recorded. Mice were considered immobile when they made no attempts to escape with the exception of the movements necessary to keep their heads above the water. Mice were scored by an observer blind to their genotypes.
The test was performed in a quiet, darkened room. Mice were individually housed in cages containing a handful of bedding from their home cage and acclimated to the room at least 1 h before the test. Naïve mice were placed individually in the testing chamber in the dark compartment. The test was 5 min in duration, and time spent and number of entries in light compartments were recorded a highly trained observer, blind to the genotype of the mice. […]

wild-type mice = assay: Allergen-triggered asthma-like condition, osteocalcin delivery
Procedure: The level of acetylcholine, a neurotransmitter that causes bronchoconstriction, is increased in the lungs but not in the brains of Osteocalcin^−/− and Gprc6a^−/− mice.
When metacholine is administered to the lungs of mice, the lung airways constrict. […] Wild-type mice were treated with an inflammation-increasing agent and developed asthma that included bronchoconstriction and signs of inflammation.

Osteocalcin−/− embryos = assay: Brain histology, apoptosis and Western blot of Osteocalcin−/− offspring of injected Osteocalcin−/− mothers
Procedure: FIG. 13. Maternal osteocalcin determines spatial learning and memory in adult offspring. (A-F) DLT (A), EPMT (B), OFT (C), FST (D), TST (E), and MWMT (F) performed in 3-month-old Osteocalcin^−/− mice born from Osteocalcin^−/− mothers injected once a day with vehicle or recombinant uncarboxylated osteocalcin (240 ng/day) during pregnancy compared to WT mice. (G) Surface of the lateral ventricle over brain area (%) of E18.5 hippocampi coronal sections of WT embryos originating from WT mothers and Osteocalcin^−/− embryos originating from osteocalcin-injected Osteocalcin^−/− mothers. (H) Number of apoptotic cells (stained by TUNEL assay) of E18.5 hippocampi coronal sections of WT embryos originating from WT mothers and Osteocalcin^−/− embryos originating from Osteocalcin^−/− mothers injected with osteocalcin (240 ng/day). (I) Cresyl violet, NeuN immunofluorescence, and dentate gyrus area (% versus WT) of WT and Osteocalcin^−/− embryos originating from osteocalcin-injected Osteocalcin^−/− mothers. Scale bars=0.5 mm.
Immunofluorescence of whole adult and embryonic brains was performed on […] coronal cryostat slices of tissue fixed with 4% PFA, embedded in cryomatrix (Tissue-Tek) and stored at −80° C. Sections were allowed to dry at room temperature, post-fixed in 4% PFA followed by permeabilization with 0.1% Triton detergent. After room temperature blocking with donkey serum, sections were incubated with anti-Neun antibody (Millipore) overnight at 4° C. Slides were mounted with Fluorogel (Electron Microscopy Sciences).
Cresyl violet staining to visualize brain morphology was carried out by incubating 20 μm cryosections defatted with 1:1 chloroform:ethanol in cresyl violet acetate (1 g/L) overnight. The stain was differentiated using ethanol and xylene and mounted using DPX mounting medium for histology (Sigma).
To assess apoptosis in WT and Osteocalcin^−/− brains, 20 μm cryostat sections were processed using the APOPTAG® Fluorescein Direct In Situ Apoptosis Detection Kit (Millipore) according to manufacturer's protocol. Images were obtained using Leica DM 4000B, and Image J was used to quantify cell number and intensity of staining.
To further evaluate the importance of maternal osteocalcin for the acquisition of spatial learning and memory in adult offspring, pregnant Osteocalcin^−/− mothers from E0.5 to E18.5 were treated with injections, once a day, of osteocalcin (240 ng/day). Osteocalcin was never injected in these females or their pups after delivery. […] Likewise, the number of apoptotic cells was reduced and the number of NeuN positive cells was increased compared to Osteocalcin^−/− embryos originating from Osteocalcin^−/− mothers that were not injected (FIG. 13I-J).

[1] = listed as undercarboxylated/uncarboxylated osteocalcin
[2] = delivery by nebulization (two weeks)
[3] = E18.5 embryos, versus embryos of mothers not injected

uncarboxylated osteocalcin: Recombinant uncarboxylated mouse osteocalcin, bacterially produced, purified on glutathione beads and cleaved from the GST subunit by thrombin (YLGASVPSPDPLEPTREQCELNPACDELSDQYGLKTAYKRIYGITI)
anxiety (Osteocalcin−/− mice): corrected | depression (Osteocalcin−/− mice): corrected | anxiety (Osteocalcin−/− mice; listed as osteocalcin): alleviates | depression (Osteocalcin−/− mice; listed as osteocalcin): alleviates | anxiety (Osteocalcin−/− mice; [1]): rescued | depression (Osteocalcin−/− mice; [1]): rescued | learning and memory (Osteocalcin−/− mice; direct administration to the brains of adult Osteocalcin−/− mice): rescued | bronchoconstriction (wild-type mice; [2]): completely rescued | local inflammation / inflammatory signs (wild-type mice; [2]): without affecting; also recorded: still observed | bronchoconstriction (wild-type mice; osteocalcin delivered to the brains): did not show a similar effect | cerebral ventricle enlargement (Osteocalcin−/− embryos; E18.5 Osteocalcin−/− embryos, mothers injected 240 ng/day, cresyl violet): rescue | Caspase-3 cleaved protein level in the hippocampus (Osteocalcin−/− embryos; E18.5 embryos, Western blot, versus mothers not injected): decrease | number of NeuN positive cells (Osteocalcin−/− embryos; [3]): increased | number of apoptotic cells (Osteocalcin−/− embryos; [3]): reduced | thickness defect in the CA3 and CA4 regions of the hippocampus (Osteocalcin−/− embryos; adult Osteocalcin−/− originating from Osteocalcin−/− mothers): rescue
